From patent US12612416B2, “Modulators of cystic fibrosis transmembrane conductance regulator” (VERTEX PHARMACEUTICALS INCORPORATED, priority 2020, dated 2026)
Read-outs that look alike come from different tables or passages of the source.

Key:
[1] = molecular target: T1, CFTR-mediated short-circuit current in F508del/MF-HBE cells (Homo sapiens, UniProt P13569, DEL508-508); assay: HBE assay: Ussing chamber assay of CFTR-mediated short-circuit currents; format: cell-based; conditions: 20% human serum; for HBE Activity at 10 μM: single fixed concentration of 10 μM in combination with 1 μM Ivacaftor; for HBE Activity at 10 μM / EC50: 18-24 hours; for HBE Max. activity / EC50: F508del/MF-HBE; for HBE Max. activity: in combination with 1 μM Ivacaftor, compared to known Vertex corrector with 18 μM Tezacaftor and 1 μM Ivacaftor; for EC50: range of concentrations in combination with 1 μM Ivacaftor
T1 construct: endogenous in cells; host or cells: primary human bronchial epithelial cells from CF subjects (F508del/MF)
T1 sequence (P13569 with tags, fused parts or gaps DEL508-508): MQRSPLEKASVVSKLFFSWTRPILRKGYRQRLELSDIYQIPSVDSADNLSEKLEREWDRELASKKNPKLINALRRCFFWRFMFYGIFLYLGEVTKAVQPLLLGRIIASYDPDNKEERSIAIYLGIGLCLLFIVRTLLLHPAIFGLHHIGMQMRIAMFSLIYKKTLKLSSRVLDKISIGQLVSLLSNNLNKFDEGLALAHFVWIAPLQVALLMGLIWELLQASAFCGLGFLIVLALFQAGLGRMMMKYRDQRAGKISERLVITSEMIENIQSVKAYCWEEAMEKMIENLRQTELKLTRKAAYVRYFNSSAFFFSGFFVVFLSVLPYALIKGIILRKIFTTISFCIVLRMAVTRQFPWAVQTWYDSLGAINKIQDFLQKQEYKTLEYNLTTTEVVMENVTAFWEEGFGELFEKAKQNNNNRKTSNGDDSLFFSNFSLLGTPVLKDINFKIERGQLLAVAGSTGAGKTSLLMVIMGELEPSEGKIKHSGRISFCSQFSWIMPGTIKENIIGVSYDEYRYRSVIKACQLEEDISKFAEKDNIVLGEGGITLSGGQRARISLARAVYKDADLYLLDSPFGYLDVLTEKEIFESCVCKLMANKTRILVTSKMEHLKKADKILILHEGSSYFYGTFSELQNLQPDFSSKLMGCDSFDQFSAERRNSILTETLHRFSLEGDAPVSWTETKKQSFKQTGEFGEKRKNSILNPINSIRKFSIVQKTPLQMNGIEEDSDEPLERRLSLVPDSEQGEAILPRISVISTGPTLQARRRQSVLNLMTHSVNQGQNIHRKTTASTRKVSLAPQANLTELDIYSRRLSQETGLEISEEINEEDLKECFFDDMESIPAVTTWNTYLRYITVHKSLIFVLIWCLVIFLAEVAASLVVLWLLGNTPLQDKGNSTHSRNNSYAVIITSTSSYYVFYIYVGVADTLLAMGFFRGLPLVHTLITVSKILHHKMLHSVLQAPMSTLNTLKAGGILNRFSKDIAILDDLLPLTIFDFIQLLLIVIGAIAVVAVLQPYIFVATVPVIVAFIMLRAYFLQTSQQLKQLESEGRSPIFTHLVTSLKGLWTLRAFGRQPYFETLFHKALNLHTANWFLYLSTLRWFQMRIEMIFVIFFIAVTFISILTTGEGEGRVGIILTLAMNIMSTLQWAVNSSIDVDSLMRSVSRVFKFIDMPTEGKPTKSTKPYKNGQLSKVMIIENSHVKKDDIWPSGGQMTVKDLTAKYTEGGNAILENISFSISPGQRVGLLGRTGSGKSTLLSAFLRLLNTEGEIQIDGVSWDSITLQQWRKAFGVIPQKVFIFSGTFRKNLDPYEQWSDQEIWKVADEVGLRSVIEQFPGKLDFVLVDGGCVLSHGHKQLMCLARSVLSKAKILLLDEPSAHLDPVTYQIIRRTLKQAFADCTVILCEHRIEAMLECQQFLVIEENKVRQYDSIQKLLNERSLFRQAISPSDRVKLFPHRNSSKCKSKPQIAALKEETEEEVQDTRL
Experimental: Ussing chamber experiments were performed using human bronchial epithelial (HBE) cells derived from CF subjects heterozygous for F508del and a minimal function CFTR mutation (F508del/MF-HBE) and cultured as previously described (Neuberger T, Burton B, Clark H, Van Goor F Methods Mol Biol 2011:741:39-54). After four days the apical media was removed, and the cells were grown at an air liquid interface for >14 days prior to use.
To isolate the CFTR-mediated short-circuit (ISC) current, F508del/MF-HBE grown on Costar® Snapwell™ cell culture inserts were mounted in an Ussing chamber and the transepithelial ISC was measured under voltage-clamp recording conditions (Vhold=0 mV) at 37° C. The basolateral solution contained (in mM) 145 NaCl, 0.83K2HPO4, 3.3 KH2PO4, 1.2 MgCl2, 1.2 CaCl2), 10 Glucose, 10 HEPES (pH adjusted to 7.4 with NaOH) and the apical solution contained (in mM) 145 NaGluconate, 1.2 MgCl2, 1.2 CaCl2), 10 glucose, 10 HEPES (pH adjusted to 7.4 with NaOH) and 30 μM amiloride to block the epithelial sodium channel. Forskolin (20 μM) was added to the apical surface to activate CFTR, followed by apical addition of a CFTR inhibitor cocktail consisting of BPO, GlyH-101, and CFTR inhibitor 172 (each at 20 μM final assay concentration) to specifically isolate CFTR currents. The CFTR-mediated ISC (μA/cm^2) for each condition was determined from the peak forskolin response to the steady-state current following inhibition.
The activity of the CFTR corrector compounds on the CFTR-mediated ISC was determined in Ussing chamber studies as described above. The F508del/MF-HBE cell cultures were either incubated with the corrector compounds at a range of concentrations in combination with 1 μM Ivacaftor or were incubated with the corrector compounds at a single fixed concentration of 10 μM in combination with 1 μM Ivacaftor for 18-24 hours at 37° C. and in the presence of 20% human serum. The concentration of corrector compounds with 1 μM Ivacaftor during the 18-24 hours incubations was kept constant throughout the Ussing chamber measurement of the CFTR-mediated ISC to ensure compounds were present throughout the entire experiment.

[2] = molecular target: CFTR-mediated chloride transport in human intestinal epithelial enteroid cells (Homo sapiens, UniProt P13569); assay: Membrane potential dye, Enteroid Assay A; format: cell-based
CFTR-mediated chloride transport in human intestinal epithelial enteroid cells, sequence (P13569 with tags, fused parts or gaps DEL508-508): as above
Experimental: Base medium (ADF+++) consisted of Advanced DMEM/Ham's F12, 2 mM Glutamax, 10 mM HEPES, […] penicillin/streptomycin.
Intestinal enteroid maintenance medium (IEMM) consisted of ADF+++, 1×B27 supplement, 1×N2 supplement, 1.25 mM N-acetyl cysteine, 10 mM Nicotinamide, 50 ng/mL hEGF, 10 nM Gastrin, 1 μg/mL hR-spondin-1, 100 ng/mL hNoggin, TGF-b type 1 inhibitor A-83-01, 100 μg/mL Primocin, 10 μM P38 MAPK inhibitor SB202190.
Bath 1 Buffer consisted of 1 mM MgCl2, 160 mM NaCl, 4.5 mM KCl, 10 mM HEPES, 10 mM Glucose, 2 mM CaCl2).
Chloride Free Buffer consisted of 1 mM Magnesium Gluconate, 2 mM Calcium Gluconate, 4.5 mM Potassium Gluconate, 160 mM Sodium Gluconate, 10 mM HEPES, 10 mM Glucose.
BathI Dye Solution consisted of Bath 1 Buffer, 0.04% Pluronic F127, 20 μM Methyl Oxonol, 30 μM CaCCinh-A01, 30 μM Chicago Sky Blue.
Chloride Free Dye Solution consisted of Chloride Free Buffer, 0.04% Pluronic F127, 20 μM Methyl Oxonol, 30 μM CaCCinh-A01, 30 μM Chicago Sky Blue.
Chloride Free Dye Stimulation Solution consisted of Chloride Free Dye Solution, 10 μM forskolin, 100 μM IBMX, and 300 nM Compound III.
Human intestinal epithelial enteroid cells were obtained from the Hubrecht Institute for Developmental Biology and Stem Cell Research, Utrecht, The Netherlands and expanded in T-Flasks as previously described (Dekkers J F, Wiegerinck C L, de Jonge H R, Bronsveld I, Janssens H M, de Winter-de Groot K M, Brandsma A M, de Jong N W M, Bijvelds M J C, Scholte B J, Nieuwenhuis E E S, van den Brink S, Clevers H, van der Ent C K, Middendorp S and M Beekman J M. A functional CFTR assay using primary cystic fibrosis intestinal organoids. Nat Med. 2013 July; 19(7):939-45.).
Cells were recovered in cell recovery solution, collected by centrifugation at 650 rpm for 5 minutes at 4° C., resuspended in TrypLE and incubated for 5 minutes at 37° C. Cells were then collected by centrifugation at 650 rpm for 5 minutes at 4° C. and resuspended in IEMM containing 10 μM ROCK inhibitor (RI). The cell suspension was passed through a 40 μm cell strainer and resuspended at 1×10^6 cells/mL in IEMM containing 10 μM RI. Cells were seeded at 5000 cells/well into multi-well plates and incubated for overnight at 37° C., 95% humidity and 5% CO2 prior to assay.
Enteroid cells were incubated with test compound in IEMM for 18-24 hours at 37° C., 95% humidity and 5% C02. […] Briefly, cells were washed 5 times in Bath 1 Buffer. Bath 1 Dye Solution was added, and the cells were incubated for 25 minutes at room temperature. Following dye incubation, cells were washed 3 times in Chloride Free Dye Solution. Chloride transport was initiated by addition of Chloride Free Dye Stimulation Solution and the fluorescence signal was read for 15 minutes. […] Chloride transport was then expressed as a percentage of the chloride transport following treatment with 3 μM (S)—N-((6-aminopyridin-2-yl)sulfonyl)-6-(3-fluoro-5-isobutoxyphenyl)-2-(2,2,4-trimethylpyrrolidin-1-yl)nicotinamide, 3 μM (R)-1-(2,2-difluorobenzo[d][1,3]dioxol-5-yl)-N-(1-(2,3-dihydroxypropyl)-6-fluoro-2-(1-hydroxy-2-methylpropan-2-yl)-1H-indol-5-yl)cyclopropanecarboxamide and 300 nM acute N-[2,4-bis(1,1-dimethylethyl)-5-hydroxyphenyl]-1,4-dihydro-4-oxoquinoline-3-carboxamide triple combination control (% Activity).

[3] = amide bond, DMF

| Compound | HBE Activity at 10 μM [1] | HBE Max. activity [1] | EC50 [1] | other results |
| --- | --- | --- | --- | --- |
| Cc1cccc(C)c1-c1cc2nc(n1)NS(=O)(=O)c1cccc(c1)C(=O)N([C@H]1CC3(C1)C[C@H](C(C)(C)O)C3)[C@H](CC(C)(C)C)CC2 (single isomer, unassigned) [Compound 65] | +++ (+++ is >60%) |  |  |  |
| Cc1cccc(C)c1-c1cc2nc(n1)NS(=O)(=O)c1cccc(c1)C(=O)N([C@H]1CC3(C1)C[C@H](C(C)(C)O)C3)[C@H](CC(C)(C)C)CC2 (single isomer, unassigned) [Compound 66] | +++ (+++ is >60%) |  |  |  |
| Cc1cccc(C)c1-c1cc2nc(n1)NS(=O)(=O)c1cccc(c1)C(=O)NCC1(CCCCC1)CN2 [Compound 40, 6-(2,6-Dimethylphenyl)-2,2-dioxo-spiro[2 λ6-thia-3,5,9,13,20-pentazatricyclo[13.3.1.14,8]icosa-1(19),4(20),5,7,15,17-hexaene-11,1′-cyclohexane]-14-one] |  |  |  | Ent. A Max Activity ([2]; % of chloride transport of triple combination control: 3 μM (S)-N-((6-aminopyridin-2-yl)sulfonyl)-6-(3-fluoro-5-isobutoxyphenyl)-2-(2,2,4-trimethylpyrrolidin-1-yl)nicotinamide, 3 μM tezacaftor, 300 nM acute ivacaftor): + (+ is <30%); EC50 ([2]; enteroid cells, 18-24 hours incubation, acute 10 μM forskolin and 300 nM ivacaftor, read-out: Ent. A EC50): 1000 to 3000 nM; ring closure, yield after HPLC ([3]; from Cc1cccc(C)c1-c1cc(NCC2(CN)CCCCC2)nc(NS(=O)(=O)c2cccc(C(=O)O)c2)n1, 14-membered ring, HATU/Et3N, 58.9 mM, 0.5 h): 33% |
| Cc1cccc(C)c1-c1cc2nc(n1)NS(=O)(=O)c1cccc(c1)C(=O)N(Cc1ncc(OC(C)C)cn1)[C@H](CC(C)(C)C)CC2 [Compound 62, (11S)-6-(2,6-Dimethylphenyl)-11-(2,2-dimethylpropyl)-12-[(5-isopropoxypyrimidin-2-yl)methyl]-2,2-dioxo-2 λ6-thia-3,5,12,19-tetrazatricyclo[12.3.1.14,8]nonadeca-1(18),4(19),5,7,14,16-hexaen-13-one] |  | +++ (+++ is >60%) | < 1000 nM | ring closure, yield after HPLC ([3]; from Cc1cccc(C)c1-c1cc(CC[C@@H](CC(C)(C)C)NCc2ncc(OC(C)C)cn2)nc(NS(=O)(=O)c2cccc(C(=O)O)c2)n1, 13-membered ring, CDMT/NMM, 47.5 mM, 18.0 h): 79% |
| Cc1cccc(C)c1-c1cc2nc(n1)NS(=O)(=O)c1cccc(c1)C(=O)N(Cc1ncc(OC3CCC3)cn1)[C@H](CC(C)(C)C)CC2 [Compound 64, (11S)-12-[[5-(Cyclobutoxy)pyrimidin-2-yl]methyl]-6-(2,6-dimethylphenyl)-11-(2,2-dimethylpropyl)-2,2-dioxo-2λ6-thia-3,5,12,19-tetrazatricyclo[12.3.1.14,8]nonadeca-1(18),4(19),5,7,14,16-hexaen-13-one] | +++ (+++ is >60%) |  |  | ring closure, yield after HPLC ([3]; from Cc1cccc(C)c1-c1cc(CC[C@@H](CC(C)(C)C)NCc2ncc(OC3CCC3)cn2)nc(NS(=O)(=O)c2cccc(C(=O)O)c2)n1, 13-membered ring, CDMT/NMM, 44.1 mM, 17.0 h): 73% |

Continued, in another order:

| HBE Activity at 10 μM [1] | HBE Max. activity [1] | EC50 [1] | Compound | other results |
| --- | --- | --- | --- | --- |
|  | +++ (+++ is >60%) | < 1000 nM | Cc1cccc(C)c1-c1cc2nc(n1)NS(=O)(=O)c1cccc(c1)C(=O)N(Cc1ncc(OC(C)C)cn1)[C@H](CC(C)C)CC2 [Compound 58] |  |
|  | +++ (+++ is >60%) | < 1000 nM | Cc1cccc(C)c1-c1cc2nc(n1)NS(=O)(=O)c1cccc(c1)C(=O)N(Cc1ncc(OC3CCC3)cn1)[C@H](CC(C)C)CC2 [Compound 59] |  |
|  | +++ (+++ is >60%) | < 1000 nM | Cc1cccc(C)c1-c1cc2nc(n1)NS(=O)(=O)c1cccc(c1)C(=O)N(Cc1nccc(N(C)C(C)C)n1)[C@H](CC(C)C)CC2 [Compound 60, (11S)-6-(2,6-dimethylphenyl)-11-isobutyl-12-[[4-[isopropyl(methyl)amino]pyrimidin-2-yl]methyl]-2,2-dioxo-2λ^6-thia-3,5,12,19-tetrazatricyclo[12.3.1.14,8]nonadeca-1(18),4(19),5,7,14,16-hexaen-13-one] | ring closure, yield after HPLC ([3]; from Cc1cccc(C)c1-c1cc(CC[C@@H](CC(C)C)NCc2nccc(N(C)C(C)C)n2)nc(NS(=O)(=O)c2cccc(C(=O)O)c2)n1, 13-membered ring, HATU/DIEA, 12.4 mM, 25.0 °C, 2.0 h): 49% |
| +++ (+++ is >60%) |  |  | Cc1cccc(C)c1-c1cc2nc(n1)NS(=O)(=O)c1cccc(c1)C(=O)N(C1CC3(CC3)C1)[C@H](CC(C)(C)C)CC2 [Compound 63] |  |
